Experimental data as given in PubChem BioAssay AID248 (DTP/NCI, 2004).
Values joined by “and” are separate entries in the source; they are usually repeats but may differ in a detail not shown here. Identical values can stand only once. Inconclusive results and toxic doses are left out.

Tested on: L1210 leukemia ip in BDF1 mice, survival T/C
Experiment: NCI In Vivo Anticancer Drug Screen. Data for tumor model L1210 Leukemia (intraperitoneal) in B6D2F1 (BDF1) mice
Conditions: endpoint: mean survival time, higher = longer survival
Method in brief: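 Tumor cells were implanted, animals were treated, and survival was followed. The result divides the treated measurement by the vehicle-control measurement.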

[1] = dose: 12.5 mg/kg/injection, schedule: Q04DX003 (ip), vehicle: saline with Tween-80
[2] = dose: 25.0 mg/kg/injection, schedule: Q04DX003 (ip), vehicle: saline with Tween-80
[3] = dose: 100.0 mg/kg/injection, schedule: Q04DX003 (ip), vehicle: Klucel (hydroxypropylcellulose) (HPC)
[4] = dose: 200.0 mg/kg/injection, schedule: Q04DX003 (ip), vehicle: Klucel (hydroxypropylcellulose) (HPC)
[5] = dose: 400.0 mg/kg/injection, schedule: Q04DX003 (ip), vehicle: Klucel (hydroxypropylcellulose) (HPC)
[6] = dose: 100.0 mg/kg/injection, schedule: Q01DX009 (ip), vehicle: saline with Tween-80
[7] = dose: 200.0 mg/kg/injection, schedule: Q01DX009 (ip), vehicle: saline with Tween-80
[8] = dose: 400.0 mg/kg/injection, schedule: Q01DX009 (ip), vehicle: saline with Tween-80
[9] = dose: 100.0 mg/kg/injection, schedule: Q01DX009 (ip), vehicle: Klucel (hydroxypropylcellulose) (HPC)
[10] = dose: 200.0 mg/kg/injection, schedule: Q01DX009 (ip), vehicle: Klucel (hydroxypropylcellulose) (HPC)
[11] = dose: 400.0 mg/kg/injection, schedule: Q01DX009 (ip), vehicle: Klucel (hydroxypropylcellulose) (HPC)
[12] = dose: 100.0 mg/kg/injection, schedule: Q01DX001 (ip), vehicle: saline
[13] = dose: 200.0 mg/kg/injection, schedule: Q01DX001 (ip), vehicle: saline
[14] = dose: 400.0 mg/kg/injection, schedule: Q01DX001 (ip), vehicle: saline
[15] = dose: 100.0 mg/kg/injection, schedule: Q04DX003 (ip), vehicle: saline with Tween-80
[16] = dose: 200.0 mg/kg/injection, schedule: Q04DX003 (ip), vehicle: saline with Tween-80
[17] = dose: 400.0 mg/kg/injection, schedule: Q04DX003 (ip), vehicle: saline with Tween-80
[18] = dose: 100.0 mg/kg/injection, schedule: Q01DX001 (ip), vehicle: carboxymethylcellulose (CMC)
[19] = dose: 200.0 mg/kg/injection, schedule: Q01DX001 (ip), vehicle: carboxymethylcellulose (CMC)
[20] = dose: 400.0 mg/kg/injection, schedule: Q01DX001 (ip), vehicle: carboxymethylcellulose (CMC)
[21] = dose: 100.0 mg/kg/injection, schedule: Q01DX009 (ip), vehicle: saline
[22] = dose: 200.0 mg/kg/injection, schedule: Q01DX009 (ip), vehicle: saline
[23] = dose: 400.0 mg/kg/injection, schedule: Q01DX009 (ip), vehicle: saline
[24] = dose: 100.0 mg/kg/injection, schedule: Q01DX001 (ip), vehicle: Klucel (hydroxypropylcellulose) (HPC)
[25] = dose: 200.0 mg/kg/injection, schedule: Q01DX001 (ip), vehicle: Klucel (hydroxypropylcellulose) (HPC)
[26] = dose: 400.0 mg/kg/injection, schedule: Q01DX001 (ip), vehicle: Klucel (hydroxypropylcellulose) (HPC)

O=[N+]([O-])c1cc[n+]([O-])cc1
T/C (dose: 6.25 mg/kg/injection, schedule: Q01DX009 (ip), vehicle: saline with Tween-80): 98 % of control | T/C (dose: 6.25 mg/kg/injection, schedule: Q04DX003 (ip), vehicle: saline with Tween-80): 96 % of control | T/C (dose: 12.5 mg/kg/injection, schedule: Q01DX009 (ip), vehicle: saline with Tween-80): 96 % of control | T/C [1]: 96 % of control | T/C (dose: 25.0 mg/kg/injection, schedule: Q01DX009 (ip), vehicle: saline with Tween-80): 91 % of control | T/C [2]: 95 % of control

CSc1nc(SCc2ccccc2)[nH]c(=O)n1
T/C (dose: 100.0 mg/kg/injection, schedule: Q04DX002 (ip), vehicle: saline with Tween-80): 98 % of control | T/C (dose: 200.0 mg/kg/injection, schedule: Q04DX002 (ip), vehicle: saline with Tween-80): 117 % of control | T/C (dose: 400.0 mg/kg/injection, schedule: Q04DX002 (ip), vehicle: saline with Tween-80): 98 % of control

O=C(NCCCl)NCc1ccccc1
T/C [3]: 103 % of control | T/C [4]: 107 % of control | T/C [5]: 113 % of control

O=C(O)c1ccc(S(=O)(=O)F)c(Cl)c1
T/C [6]: 100 % of control | T/C [7]: 102 % of control | T/C [8]: 89 % of control

CCc1cc2c([nH]c3ccccc32)c(C)c1CCN(C)C
T/C (dose: 50.0 mg/kg/injection, schedule: Q01DX001 (ip), vehicle: other): 101 % of control | T/C (dose: 100.0 mg/kg/injection, schedule: Q01DX001 (ip), vehicle: other): 97 % of control | T/C (dose: 200.0 mg/kg/injection, schedule: Q01DX001 (ip), vehicle: other): 95 % of control

C[S+](C)(=O)/C=C(\[O-])Nc1ccccc1
T/C [9]: 101 % of control | T/C [3]: 101 % of control | T/C [10]: 92 % of control | T/C [4]: 97 % of control | T/C [11]: 97 % of control | T/C [5]: 103 % of control

CN1C(=O)C(Br)=C(Br)C1(O)c1cccnc1 (stereo not given)
T/C (dose: 50.0 mg/kg/injection, schedule: Q01DX001 (ip), vehicle: saline): 104 % of control | T/C [12]: 104 % of control | T/C [13]: 95 % of control | T/C [14]: 98 % of control

NC(CCO)C(=O)O (stereo not given)
T/C (dose: 50.0 mg/kg/injection, schedule: Q04DX002 (ip), vehicle: saline): 96 % of control | T/C (dose: 100.0 mg/kg/injection, schedule: Q04DX002 (ip), vehicle: saline): 96 % of control | T/C (dose: 200.0 mg/kg/injection, schedule: Q04DX002 (ip), vehicle: saline): 100 % of control

CCOC(=O)CCN(C(=O)OCC)C(COCc1ccccc1)C(=O)OCC (stereo not given)
T/C [12]: 104 % of control | T/C [13]: 104 % of control | T/C [14]: 98 % of control

C#CC(=O)OCC
T/C [1]: 103 % of control | T/C (dose: 25.0 mg/kg/injection, schedule: Q01DX001 (ip), vehicle: saline with Tween-80): 105 % of control | T/C [2]: 106 % of control | T/C (dose: 50.0 mg/kg/injection, schedule: Q01DX001 (ip), vehicle: saline with Tween-80): 108 % of control | T/C (dose: 50.0 mg/kg/injection, schedule: Q04DX003 (ip), vehicle: saline with Tween-80): 119 % of control

CCCCCSc1cccc(N)c1
T/C (dose: 100.0 mg/kg/injection, schedule: Q01DX001 (ip), vehicle: saline with Tween-80): 112 % of control | T/C (dose: 200.0 mg/kg/injection, schedule: Q01DX001 (ip), vehicle: saline with Tween-80): 102 % of control | T/C (dose: 400.0 mg/kg/injection, schedule: Q01DX001 (ip), vehicle: saline with Tween-80): 97 % of control

O=S(=O)(N/C(=C(/c1ccccc1)N(c1ccccc1)S(=O)(=O)c1ccccc1)c1ccccc1)c1ccccc1
T/C (dose: 75.0 mg/kg/injection, schedule: Q01DX001 (ip), vehicle: Klucel (hydroxypropylcellulose) (HPC)): 90 % of control | T/C (dose: 150.0 mg/kg/injection, schedule: Q01DX001 (ip), vehicle: Klucel (hydroxypropylcellulose) (HPC)): 87 % of control | T/C (dose: 300.0 mg/kg/injection, schedule: Q01DX001 (ip), vehicle: Klucel (hydroxypropylcellulose) (HPC)): 90 % of control

O=C(O)C12C3C4CC5C3C1C5C42 (stereo not given)
T/C [15]: 98 % of control | T/C [16]: 106 % of control | T/C [17]: 97 % of control

CC1(c2cccs2)NC(=O)NC1=O (stereo not given)
T/C [18]: 95 % of control | T/C [6]: 102 % of control | T/C [15]: 105 % of control and 96 % of control | T/C [19]: 101 % of control | T/C [7]: 110 % of control | T/C [16]: 109 % of control and 96 % of control | T/C [20]: 97 % of control | T/C [8]: 109 % of control | T/C [17]: 107 % of control and 105 % of control

O=C(Cn1cc(F)c(=O)[nH]c1=O)c1ccco1
T/C [21]: 90 % of control | T/C (dose: 100.0 mg/kg/injection, schedule: Q04DX003 (ip), vehicle: saline): 96 % of control | T/C [22]: 91 % of control | T/C (dose: 200.0 mg/kg/injection, schedule: Q04DX003 (ip), vehicle: saline): 93 % of control | T/C [23]: 88 % of control | T/C (dose: 400.0 mg/kg/injection, schedule: Q04DX003 (ip), vehicle: saline): 88 % of control

CCOCCS(=O)(=O)CCS(=O)(=O)CCOCC
T/C [21]: 95 % of control | T/C [22]: 103 % of control | T/C [23]: 108 % of control

NC(=O)C1(C(N)=O)CCC1
T/C [9]: 105 % of control | T/C [10]: 105 % of control | T/C [11]: 106 % of control

CCOC(=O)c1cnc(C)nc1N
T/C [24]: 97 % of control | T/C [25]: 97 % of control | T/C [26]: 92 % of control

CCCCn1ccnc1C
T/C (dose: 6.25 mg/kg/injection, schedule: Q04DX003 (ip), vehicle: saline): 113 % of control and 90 % of control | T/C (dose: 12.5 mg/kg/injection, schedule: Q04DX003 (ip), vehicle: saline): 93 % of control and 107 % of control | T/C (dose: 25.0 mg/kg/injection, schedule: Q04DX003 (ip), vehicle: saline): 113 % of control and 265 % of control and 89 % of control | T/C (dose: 50.0 mg/kg/injection, schedule: Q04DX003 (ip), vehicle: saline): 106 % of control and 289 % of control

C/C=C/SC(=Nc1ccccc1)Nc1ccccc1
T/C [24]: 96 % of control | T/C [25]: 94 % of control | T/C [26]: 98 % of control

CN(C)c1ccc(C=NCCCNC2CCCCC2)cc1
T/C (dose: 25.0 mg/kg/injection, schedule: Q04DX003 (ip), vehicle: other): 94 % of control | T/C (dose: 50.0 mg/kg/injection, schedule: Q04DX003 (ip), vehicle: other): 102 % of control | T/C [12]: 88 % of control

CCCC(C)CC1CCCCC1=O (stereo not given)
T/C (dose: 75.0 mg/kg/injection, schedule: Q04DX003 (ip), vehicle: saline): 97 % of control | T/C (dose: 150.0 mg/kg/injection, schedule: Q04DX003 (ip), vehicle: saline): 96 % of control | T/C (dose: 300.0 mg/kg/injection, schedule: Q04DX003 (ip), vehicle: saline): 103 % of control

C=CCNC(=O)C1C2C=CC(C2)C1C(=O)NCC=C (stereo not given)
T/C [15]: 103 % of control | T/C [16]: 103 % of control

CC(NC(=O)c1cnc2ccccc2n1)C(=O)NCC(=O)O (stereo not given)
T/C [18]: 93 % of control | T/C [19]: 89 % of control | T/C [20]: 94 % of control
